Data published in PMC10537356, “Analyzing the Material Basis of Anti-RSV Efficacy of Lonicerae japonicae Flos Based on the PK-PD Model” (Molecules, 2023).
Like-named read-outs stand apart in the source and are kept apart here.

How the values were obtained:
[1] = Pharmacokinetic study of 15 LJF components in plasma of RSV-infected mice after oral LJF extract (UHPLC-QQQ MS); type: in vivo; parameters: Tmax: unit: h
Experimental: The LJF (12.0 g) were pulverized and soaked in pure water at a solid: liquid ratio of 1:200 and followed by extraction for 30 min. Then, the LJF extract was obtained by filtration, centrifugation (5000 rpm, 10 min) and concentration. Finally, the remains were freeze-dried and stored at −20 °C for subsequent pharmacokinetic assays.
All mice fasted for 1 night after being acclimatized for 7 days (no water restriction) and were randomly separated into 3 groups with 6 mice in each group. One group of healthy mice was used as the normal control group and administered physiological saline; the model group was established by intranasal infusion of RSV (TCID50 = 10^−6, 35 μL/mouse) and administered physiological saline. Members of the drug group were orally administered with LJF extract at the dose of 12 g/kg after infecting RSV. At 0.25 h, 0.5 h, 0.75 h, 1 h, 1.5 h, 2 h, 3 h,4 h, 6 h, 8 h, 10 h, 12 h and 24 h after administration blood samples (approximately 500 μL) were collected into anticoagulant tubes. The blood samples were centrifuged at 3500 rpm, 4 °C for 10 min, and the plasma (upper layer) was separated and stored at −80 °C till analysis. At the same time, the lung tissue was removed, weighed and placed in the EP tube together with five times the weight of the lung tissue in PBS solution containing 1% PMSF. Subsequently, the tissue samples were homogenized using the tissue grinder, and centrifugation to obtain a supernatant for further examination.
An amount of 50 μL IS and 2 mL acetonitrile were mixed into 200 μL plasma, after which the mixture was centrifuged (12,000 rpm, 4 °C, 10 min) and dried with nitrogen. The residue was dissolved in 70% acetonitrile containing 1% formic acid, centrifuged and subsequently the supernatant (2 μL) was injected into the UHPLC-QQQ-MS system.
Agilent 1260 series (Santa Clara, CA, USA) chromatography system was equipped with a solvent degasser, G1311B quaternary pump and G1329B automated injector. The elution was performed on a Halo® C18 column (2.1 × 100 mm, 2.7 μm) at 30 °C, and the mobile phase consisted of 0.05% formic acid in water for solvent A and 0.05% formic acid in acetonitrile for solvent B at a flow rate of 0.3 mL/min. The gradient elution was as follows: 0–30 min at 5–25% B, 30–35 min at 25–55% B, 35–45 min at 55–70% B, 45–55 min at 70–100% B, and 5 μL for analysis.
The MS/MS analysis was performed by Agilent 6470 Triple Quadrupole LC/MS (Santa Clara, CA, USA) with an ESI source. MRM was selected for the detection of the standards and internal standard with a dwell time of 2 ms. The mass spectrometry conditions were optimized as follows: Nebulizer pressure: 50 psi; capillary: positive: 4000 V, negative: 3500 V; cell acceleration voltage: 5 V; gas temp: 350 °C and flow rate at 10 L/min. The acquired data were processed and analyzed by Mass Hunter Workstation quantitative analysis.
Fifteen standards and IS were optimized for mass conditions by the positive and negative ion modes of the chromatographic system, respectively. The pharmacokinetics of 15 chemical constituents in RSV-infected mice were assessed using the UPLC-QQQ-MS/MS method.
The pharmacokinetic parameters, including maximum concentration (Cmax), time to reach Cmax (Tmax), the elimination half-life (T1/2), mean residence time (MRT), and area under the concentration–time curve (AUC) were calculated using non-compartmental analysis by Phoenix 8.1.0.3530.

RSV = conditions: cited from earlier work; for anti-RSV effects: by inhibiting virus–cell fusion in the early stage and cell–cell fusion at the end of the RSV replication cycle
viruses = tested on: viruses; parameters: method as in PMID 19904996; conditions: prevents viruses from entering cells; cited from earlier work
[2] = mouse, plasma, po, 12 g/kg, RSV mice plasma, oral LJF extract 12.0 g/kg, n = 6, read-out: AUC(0–t)
[3] = mouse, plasma, po, 12 g/kg, RSV mice plasma, oral LJF extract 12.0 g/kg, n = 6, read-out: AUC(0–∞)
[4] = mouse, plasma, po, 12 g/kg, RSV mice plasma, oral LJF extract 12.0 g/kg, n = 6, read-out: Cmax
[5] = mouse, plasma, po, 12 g/kg, RSV mice plasma, oral LJF extract 12.0 g/kg, n = 6, read-out: MRT(0–t)
[6] = mouse, plasma, po, 12 g/kg, RSV mice plasma, oral LJF extract 12.0 g/kg, n = 6, read-out: T1/2 (converted)
[7] = mouse, RSV mice plasma, oral LJF extract 12.0 g/kg, n = 6, read-out: Tmax
[8] = RSV mice plasma, oral LJF extract 12.0 g/kg
[9] = mouse, in vivo, RSV mice plasma, oral LJF extract 12.0 g/kg, n = 6, read-out: AUC(0–t)
[10] = mouse, in vivo, RSV mice plasma, oral LJF extract 12.0 g/kg, n = 6, read-out: AUC(0–∞)
[11] = mouse, in vivo, RSV mice plasma, oral LJF extract 12.0 g/kg, n = 6, read-out: Cmax
[12] = mouse, in vivo, RSV mice plasma, oral LJF extract 12.0 g/kg, n = 6, read-out: MRT(0–t)
[13] = mouse, in vivo, RSV mice plasma, oral LJF extract 12.0 g/kg, n = 6, read-out: T1/2 (converted)
[14] = mouse, in vivo, RSV mice plasma, oral LJF extract 12.0 g/kg, n = 6, read-out: Tmax
[15] = RSV mice plasma, oral LJF extract 12.0 g/kg, n = 6

Structure (SMILES) | AUC(0-t) [1, 2] [ng·h/mL] | AUC(0-inf) [1, 3] [ng·h/mL] | Cmax [1, 4] [ng/mL] | MRT last [1, 5] [h] | half-life [1, 6] [h] | Tmax [1, 7] [h] | shape of the concentration–time curve [1, 8] | also measured
O=C(C=Cc1ccc(O)c(O)c1)OC1CC(O)(C(=O)O)CC(O)C1OC(=O)C=Cc1ccc(O)c(O)c1 (stereo not shown) [Isochlorogenic acid C] | 926 ± 39 | 1450 | 560 ± 20.7 | 6.39 ± 0.337 | 26.9 ± 3.16 | 2 | double or multiple peaks | anti-RSV effects (RSV): specific anti-RSV effects
O=c1cc(-c2ccc(O)c(O)c2)oc2cc(O[C@@H]3O[C@H](CO)[C@@H](O)[C@H](O)[C@H]3O)cc(O)c12 [Luteoloside] |  |  |  |  |  |  | double or multiple peaks | time of first peak of plasma concentration [1, 8]: 30 min; time of second peak of plasma concentration [1, 8]: 2 h; AUC(0-t) [1, 9]: 15.8 ± 0.991 ng·h/mL; AUC(0-inf) [1, 10]: 15.9 ± 1.01 ng·h/mL; Cmax [1, 11]: 16.5 ± 1.97 ng/mL; MRT last [1, 12]: 1.5 ± 0.0928 h; half-life [1, 13]: 0.343 ± 0.0915 h; Tmax [1, 14]: 0.5 h
C[C@@H]1[C@H]2[C@H](O[C@@H]3O[C@H](CO)[C@@H](O)[C@H](O)[C@H]3O)OC=C(C(=O)O)[C@H]2C[C@@H]1O [Loganic acid] | 84.9 ± 12.8 | 99.3 ± 18.4 | 87.6 ± 10.9 | 2.29 ± 0.337 | 2.33 ± 0.429 | 0.5 |  | antiviral activity (viruses): significant antiviral activity
O=c1c(O[C@@H]2O[C@H](CO)[C@@H](O)[C@H](O)[C@H]2O)c(-c2ccc(O)c(O)c2)oc2cc(O)cc(O)c12 [Isoquercitrin] |  |  |  |  |  |  | double or multiple peaks | AUC(0-t) [1, 9]: 26.5 ± 1.19 ng·h/mL; AUC(0-inf) [1, 10]: 39.6 ± 8.47 ng·h/mL; Cmax [1, 11]: 26.5 ± 1.16 ng/mL; MRT last [1, 12]: 1.5 ± 0.0366 h; half-life [1, 13]: 2.95 ± 1.72 h; Tmax [1, 14]: 0.5 h
O=C(O)/C=C/c1ccc(O)c(O)c1 [Caffeic acid] | 2920 | 3280 | 779 ± 19.2 | 5.92 ± 0.239 | 7.92 ± 1.1 | 2 | double or multiple peaks | 
O=C(/C=C/c1ccc(O)c(O)c1)O[C@@H]1C[C@](O)(C(=O)O)C[C@@H](O)[C@H]1O [Chlorogenic acid] | 5190 | 5900 | 5600 | 2.95 ± 0.0749 | 26.1 ± 9.42 | 2 | double or multiple peaks | inhibition of RSV infection (RSV; modulating TLR3, TBK1, IRF3 expression, decreasing IFN-β): could inhibit RSV infection
O=C(C=Cc1ccc(O)c(O)c1)OC1C(O)CC(O)(C(=O)O)CC1O (stereo not shown) [Cryptochlorogenic acid] | 1260 | 1320 | 1410 | 2.79 ± 0.225 | 13.5 ± 2.98 | 2 | double or multiple peaks | 
O=C(C=Cc1ccc(O)c(O)c1)OC1CC(O)(C(=O)O)CC(O)C1OC(=O)C=Cc1ccc(O)c(O)c1 (stereo not shown) [Isochlorogenic acid B] |  |  |  |  |  |  | double or multiple peaks | AUC(0–t) [1, 15]: 1100 ng·h/mL; AUC(0–∞) [1, 15]: 1740 ng·h/mL; MRT(0–t) [1, 15]: 7.35 ± 0.170 h; T1/2 [1, 15]: 24.4 ± 2.72 h; Tmax [1, 15]: 2.00 ± 0.00 h; Cmax ([1]; RSV mice plasma, oral LJF extract 12.0 g/kg, n = 6, read-out: Cmax): 415 ± 4.69 ng/mL; anti-RSV effects (RSV): specific anti-RSV effects
C=C[C@H]1[C@H](O[C@@H]2O[C@H](CO)[C@@H](O)[C@H](O)[C@H]2O)OC=C2C(=O)OCC[C@H]21 [Sweroside] |  |  |  |  |  |  |  | Tmax ([1]; mouse, in vivo, po, 12 g/kg): 2 h; AUC(0-t) ([1]; mouse, in vivo, po, 12 g/kg, AUC(0–t)): 14200 ng·h/mL; AUC(0-inf) ([1]; mouse, in vivo, po, 12 g/kg, AUC(0–∞)): 17200 ng·h/mL; Cmax ([1]; mouse, in vivo, po, 12 g/kg, Cmax): 4630 ng/mL; MRT last ([1]; mouse, in vivo, po, 12 g/kg, MRT(0–t)): 7.17 ± 0.274 h; half-life ([1]; mouse, in vivo, po, 12 g/kg, T1/2): 10.1 ± 2.25 h

Now from value to molecule, other results behind:

AUC(0-t) [1, 2] [ng·h/mL] | AUC(0-inf) [1, 3] [ng·h/mL] | Cmax [1, 4] [ng/mL] | MRT last [1, 5] [h] | half-life [1, 6] [h] | Tmax [1, 7] [h] | shape of the concentration–time curve [1, 8] | Structure (SMILES) | also measured
20.9 ± 5.37 | 21.3 ± 5.32 | 19.6 ± 6.11 | 2.12 ± 0.149 | 1.96 ± 0.746 | 2 |  | O=c1cc(-c2ccc(O)c(O)c2)oc2cc(O)cc(O)c12 [Luteolin] | 
12100 | 13500 | 5730 | 4.88 ± 0.0632 | 10.9 ± 2.46 | 2 | double or multiple peaks | C=C[C@H]1[C@H](O[C@@H]2O[C@H](CO)[C@@H](O)[C@H](O)[C@H]2O)OC=C2C(=O)OC(O)C[C@H]21 (stereo partly shown) [Secologanic acid] | 
 | 27700 | 4670 | 7.19 ± 0.139 | 8.14 ± 1.28 | 2 | double or multiple peaks | C=C[C@H]1[C@H](O[C@@H]2O[C@H](CO)[C@@H](O)[C@H](O)[C@H]2O)OC=C(C(=O)OC)[C@H]1CC(=O)O [Secoxyloganin] | 
21500 | 22900 | 2450 | 7.37 ± 0.54 | 5.15 ± 1.52 | 1 | double or multiple peaks | C=C[C@H]1[C@H](O[C@@H]2O[C@H](CO)[C@@H](O)[C@H](O)[C@H]2O)OC=C2C(=O)OCC[C@]21O [Swertiamarin] | 
 |  |  |  |  |  | double or multiple peaks | C[C@@H]1O[C@@H](OC[C@H]2O[C@@H](Oc3c(-c4ccc(O)c(O)c4)oc4cc(O)cc(O)c4c3=O)[C@H](O)[C@@H](O)[C@@H]2O)[C@H](O)[C@H](O)[C@H]1O [Rutin] | time of first peak of plasma concentration [1, 8]: 30 min; time of second peak of plasma concentration [1, 8]: 2 h; AUC(0-t) ([1]; mouse, in vivo, po, 12 g/kg, RSV mice plasma, oral LJF extract 12.0 g/kg, n = 6, read-out: AUC(0–t)): 31.3 ± 4.34 ng·h/mL; AUC(0-inf) ([1]; mouse, in vivo, po, 12 g/kg, RSV mice plasma, oral LJF extract 12.0 g/kg, n = 6, read-out: AUC(0–∞)): 34.3 ± 3.33 ng·h/mL; Cmax ([1]; mouse, in vivo, po, 12 g/kg, RSV mice plasma, oral LJF extract 12.0 g/kg, n = 6, read-out: Cmax): 30 ± 2.54 ng/mL; MRT last ([1]; mouse, in vivo, po, 12 g/kg, RSV mice plasma, oral LJF extract 12.0 g/kg, n = 6, read-out: MRT(0–t)): 1.51 ± 0.0291 h; half-life ([1]; mouse, in vivo, po, 12 g/kg, RSV mice plasma, oral LJF extract 12.0 g/kg, n = 6, read-out: T1/2 (converted)): 2.03 ± 1.1 h; Tmax [1, 14]: 0.5 h
1070 | 1450 | 822 ± 53.9 | 4.64 ± 0.289 | 26.6 ± 4.52 | 2 | double or multiple peaks | O=C(C=Cc1ccc(O)c(O)c1)OC1CC(O)(C(=O)O)CC(OC(=O)C=Cc2ccc(O)c(O)c2)C1O (stereo not shown) [Isochlorogenic acid A] | 
